From patent US20250320224A1 (DOMAIN THERAPEUTICS, priority 2022, published 2025)
pIC50: −log10 of the molar value.

Molecular target: T1, human PAR-2 (hPAR-2) receptor (Homo sapiens, UniProt P55085)
T1 construct: expressed in HEK-293 cells in an endogenous manner; endogenous in cells; host or cells: HEK-293
T1 sequence (P55085 26-397): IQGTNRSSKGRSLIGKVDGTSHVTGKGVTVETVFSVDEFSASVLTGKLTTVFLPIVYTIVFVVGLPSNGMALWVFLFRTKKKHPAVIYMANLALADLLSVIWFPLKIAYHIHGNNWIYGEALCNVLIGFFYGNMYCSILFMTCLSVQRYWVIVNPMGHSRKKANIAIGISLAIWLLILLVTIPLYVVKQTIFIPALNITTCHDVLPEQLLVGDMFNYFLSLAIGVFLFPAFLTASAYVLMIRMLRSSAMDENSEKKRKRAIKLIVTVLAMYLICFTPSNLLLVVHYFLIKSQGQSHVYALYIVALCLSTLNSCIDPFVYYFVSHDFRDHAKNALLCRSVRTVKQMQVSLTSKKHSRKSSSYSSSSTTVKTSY
Experiment: In vitro human PAR-2 functional antagonist activity using calcium assays
Type: cell-based
Conditions: hPAR-2 endogenously expressed in HEK-293 cells; stimulated by 2-Furoyl-LIGRLO-NH2 peptide; Fluo4AM intracellular calcium, FLIPR Tetra
Protocol: Example 283: In Vitro Human PAR-2 Functional Antagonist Activity Using Calcium Assays
Examples of the present invention were tested successively for their agonist and antagonist activities on human PAR-2 (hPAR-2) receptor expressed in HEK-293 cells in an endogenous manner. Compounds exert agonist activity if, by themselves in absence of the 2-Furoyl-LIGRLO-NH2 peptide (selective hPAR-2 agonist), they activate PAR-2; they exert antagonist activity if they decrease the action of the 2-Furoyl-LIGRLO-NH2 peptide on the receptor. The assay used to determine compound activity is based on calcium measurement.
Cell Culture: HEK-293 cells were maintained in Dulbecco's Modified Eagle's Medium supplemented with 10% Foetal Calf Serum, 1% Penicillin/Streptomycin at 37° C./5% CO2. Flasks for tests (F75) are seeded with 6e+06 cells 24 h before the experiment at 37° C./5% CO2.
Calcium assay: Receptor activity was detected by changes in intracellular calcium measured using the fluorescent Ca^2+ sensitive dye, Fluo4AM (Molecular Probes).
The day of the assay, medium was replaced by assay buffer (HBSS 1× (Gibco 14175-053), Hepes 20 mM, MgSO4-7H2O 1 mM, Na2CO3 3.3 mM, CaCl2—2H2O 2.6 mM, 0.5% bovine serum albumin (BSA), Probenecid 2.5 mM, 0.1 mg/mL Pluronic Acid) and complemented with 1 μM Fluo4AM and cells were incubated during 1:30 h at 37° C.
Cells were then detached, resuspended in assay buffer and seeded in 384 wells, transparent-flat bottom black walled plates (2e+04 cells per well). Plates were incubated at +22° C. for 20 min. Compounds stock solutions were prepared in 100% DMSO and dilutions in test buffer were carried out in polypropylene plates with a digital dispenser (D300e, Tecan). Compounds were added to the cells and intracellular Ca^2+ measurements were collected at the same time on FLIPR Tetra® (Molecular Devices) with specific filters (Exc: 470-495 nm/Em: 515-575 nm).
Agonist and antagonist activities of compounds were consecutively evaluated on the same cell plate. Agonist activity was first measured after 10 min incubation with the compound alone. Then, cells were stimulated by an […] of the 2-Furoyl-LIGRLO-NH2 peptide and fluorescence was recorded for an additional 5 min. EC50 of the 2-Furoyl-LIGRLO-NH2 peptide was the concentration giving 80% of the maximal 2-Furoyl-LIGRLO-NH2 response. Agonist activities are evaluated in comparison to basal signals evoked by assay buffer or maximal 2-Furoyl-LIGRLO-NH2 response. […] Antagonist activities are evaluated in comparison to basal signals evoked by assay buffer or EC50 of 2-Furoyl-LIGRLO-NH2 alone.

pIC50 | Compound
> 6.30 | CC1(C)C(=O)NCCN1C(=O)c1ccc2c(n1)[C@]1(C)CCO[C@@H]1N2c1ccc(Cl)c(F)c1 (racemic) [Example 61, cis-4-(8-(4-chloro-3-fluorophenyl)-3a-methyl-3,3a,8,8a-tetrahydro-2H-furo[3′,2′:4,5]pyrrolo[3,2-b]pyridine-5-carbonyl)-3,3-dimethylpiperazin-2-one]
5.00 to 6.30 | CC1(C)CN(c2ccc(Cl)c(F)c2)c2ccc(C(=O)N3CC[C@H](c4ccccn4)[C@H](C(=O)O)C3)nc21 (relative stereo) [Example 137, (cis)-1-(1-(4-chloro-3-fluorophenyl)-3,3-dimethyl-2,3-dihydro-1H-pyrrolo[3,2-b]pyridine-5-carbonyl)-4-(pyridin-2-yl)piperidine-3-carboxylic acid]
5.00 to 6.30 | CC1(C)CN(c2ccc(Cl)c(F)c2)c2ccc(C(=O)N3CC[C@@H](c4ccccn4)[C@H](C(=O)O)C3)nc21 (relative stereo) [Example 138, (trans)-1-(1-(4-chloro-3-fluorophenyl)-3,3-dimethyl-2,3-dihydro-1H-pyrrolo[3,2-b]pyridine-5-carbonyl)-4-(pyridin-2-yl)piperidine-3-carboxylic acid]
> 6.30 | CC1(C)C(=O)NCCN1C(=O)c1ccc2c(n1)[C@@]1(C)CCO[C@H]1N2c1ccc(Cl)c(F)c1 (single isomer, unassigned) [Example 62]
5.00 to 6.30 | CC1(C)C(=O)NCCN1C(=O)c1ccc2c(n1)[C@]1(C)CCO[C@@H]1N2c1ccc(Cl)c(F)c1 (single isomer, unassigned) [Example 63]
> 6.30 | Cc1cc(N2CCN(C(=O)c3ccc4c(n3)C3(CC(C)C3)CN4c3ccc(Cl)c(F)c3)C(C)(C)C2)nc(C)c1C(=O)O (single isomer, unassigned) [Example 156, 6-(4-(1′-(4-chloro-3-fluorophenyl)-3-methyl-1′,2′-dihydrospiro[cyclobutane-1,3′-pyrrolo[3,2-b]pyridine]-5′-carbonyl)-3,3-dimethylpiperazin-1-yl)-2,4-dimethylnicotinic acid]
> 6.30 | COC1CC2(C1)CN(c1ccc(Cl)c(F)c1)c1ccc(C(=O)N3CCN(c4cc(C)c(C(=O)O)c(C)n4)CC3(C)C)nc12 (single isomer, unassigned) [Example 199, 6-(4-(1′-(4-chloro-3-fluorophenyl)-3-methoxy-1′,2′-dihydrospiro[cyclobutane-1,3′-pyrrolo[3,2-b]pyridine]-5′-carbonyl)-3,3-dimethylpiperazin-1-yl)-2,4-dimethylnicotinic acid]
5.00 to 6.30 | CC1(C)C(=O)NCCN1C(=O)c1ccc2c(n1)C1(CCOCC1)C(=O)N2c1ccc(Cl)c(F)c1 [Example 1, 1′-(4-chloro-3-fluorophenyl)-5′-(2,2-dimethyl-3-oxopiperazine-1-carbonyl)-2,3,5,6-tetrahydrospiro[pyran-4,3′-pyrrolo[3,2-b]pyridin]-2′(1′H)-one]
5.00 to 6.30 | CC1(C)C(=O)NCCN1C(=O)c1ccc2c(n1)C1(CCCC1)C(=O)N2c1ccc(Cl)c(F)c1 [Example 2, 1′-(4-chloro-3-fluorophenyl)-5′-(2,2-dimethyl-3-oxopiperazine-1-carbonyl)spiro[cyclopentane-1,3′-pyrrolo[3,2-b]pyridin]-2′(1′H)-one]
> 6.30 | CC1(C)C(=O)NCCN1C(=O)c1ccc2c(n1)C1(CCCC1)CN2c1ccc(Cl)c(F)c1 [Example 3, 4-(1′-(4-chloro-3-fluorophenyl)-1′,2′-dihydrospiro[cyclopentane-1,3′-pyrrolo[3,2-b]pyridine]-5′-carbonyl)-3,3-dimethylpiperazin-2-one]
> 6.30 | O=C1NC(=O)C2(CCN(C(=O)c3ccc4c(n3)C3(CCCC3)CN4c3ccc(Cl)c(F)c3)CC2)N1 [Example 4, 8-(1′-(4-chloro-3-fluorophenyl)-1′,2′-dihydrospiro[cyclopentane-1,3′-pyrrolo[3,2-b]pyridine]-5′-carbonyl)-1,3,8-triazaspiro[4.5]decane-2,4-dione]
5.00 to 6.30 | CC1(C)CN(C(=O)c2ccc3c(n2)C2(CCCC2)CN3c2ccc(Cl)c(F)c2)CCC1C(=O)O (stereo not drawn) [Example 6, 1-(1′-(4-chloro-3-fluorophenyl)-1′,2′-dihydrospiro[cyclopentane-1,3′-pyrrolo[3,2-b]pyridine]-5′-carbonyl)-3,3-dimethylpiperidine-4-carboxylic acid]
> 6.30 | Cc1cc(N2CCN(C(=O)c3ccc4c(n3)C3(CCCC3)CN4c3ccc(Cl)c(F)c3)C(C)(C)C2)nc(C)c1C(=O)O [Example 8, 6-(4-(1′-(4-chloro-3-fluorophenyl)-1′,2′-dihydrospiro[cyclopentane-1,3′-pyrrolo[3,2-b]pyridine]-5′-carbonyl)-3,3-dimethylpiperazin-1-yl)-2,4-dimethylnicotinic acid]
> 6.30 | CC1(C)C(=O)NCCN1C(=O)c1ccc2c(n1)C1(CCCC1)CN2c1cccc(Cl)c1 [Example 9, 4-(1′-(3-chlorophenyl)-1′,2′-dihydrospiro[cyclopentane-1,3′-pyrrolo[3,2-b]pyridine]-5′-carbonyl)-3,3-dimethylpiperazin-2-one]
5.00 to 6.30 | CC1(C)C(=O)NCCN1C(=O)c1ccc2c(n1)C1(CCCC1)CN2c1ccccc1Cl [Example 10, 4-(1′-(2-chlorophenyl)-1′,2′-dihydrospiro[cyclopentane-1,3′-pyrrolo[3,2-b]pyridine]-5′-carbonyl)-3,3-dimethylpiperazin-2-one]
5.00 to 6.30 | CC1(C)CN(c2ccsc2)c2ccc(C(=O)N3CCNC(=O)C3(C)C)nc21 [Example 11, 4-(3,3-dimethyl-1-(thiophen-3-yl)-2,3-dihydro-1H-pyrrolo[3,2-b]pyridine-5-carbonyl)-3,3-dimethylpiperazin-2-one]
> 6.30 | CC1(C)CN(c2ccc(F)c(F)c2)c2ccc(C(=O)N3CCNC(=O)C3(C)C)nc21 [Example 12, 4-(1-(3,4-difluorophenyl)-3,3-dimethyl-2,3-dihydro-1H-pyrrolo[3,2-b]pyridine-5-carbonyl)-3,3-dimethylpiperazin-2-one]
> 6.30 | Cc1cc(N2CCN(C(=O)c3ccc4c(n3)C(C)(C)CN4c3ccc(F)c(F)c3)C(C)(C)C2)nc(C)c1C(=O)O [Example 14, 6-(4-(1-(3,4-difluorophenyl)-3,3-dimethyl-2,3-dihydro-1H-pyrrolo[3,2-b]pyridine-5-carbonyl)-3,3-dimethylpiperazin-1-yl)-2,4-dimethylnicotinic acid]
> 6.30 | CC1(C)CN(c2ccc(F)cc2)c2ccc(C(=O)N3CCNC(=O)C3(C)C)nc21 [Example 15, 4-(1-(4-fluorophenyl)-3,3-dimethyl-2,3-dihydro-1H-pyrrolo[3,2-b]pyridine-5-carbonyl)-3,3-dimethylpiperazin-2-one]
> 6.30 | Cc1cc(N2CCN(C(=O)c3ccc4c(n3)C(C)(C)CN4c3cccc(F)c3)C(C)(C)C2)nc(C)c1C(=O)O [Example 17, 6-(4-(1-(3-fluorophenyl)-3,3-dimethyl-2,3-dihydro-1H-pyrrolo[3,2-b]pyridine-5-carbonyl)-3,3-dimethylpiperazin-1-yl)-2,4-dimethylnicotinic acid]

Compound | pIC50
CC1(C)CN(c2ccc(Cl)c(F)c2)c2ccc(C(=O)N3[C@@H]4CC[C@H]3CC(CC(=O)O)C4)nc21 (mixture of isomers) [Example 130, 2-((1R,5S)-8-(1-(4-chloro-3-fluorophenyl)-3,3-dimethyl-2,3-dihydro-1H-pyrrolo[3,2-b]pyridine-5-carbonyl)-8-azabicyclo[3.2.1]octan-3-yl)acetic acid] | 5.00 to 6.30
